What was measured:
[1] = test system: Klebsiella aerogenes; assay: In vitro minimal inhibitory concentration (MIC) of compound in combination with Ceftazidime (CAZ) showed synergic activity against Enterobacter aerogenes S-97; format: functional
[2] = test system: Enterobacter cloacae; assay: In vitro minimal inhibitory concentration (MIC) of compound in combination with Ceftazidime (CAZ) showed synergic activity against Enterobacter cloacae S-65; format: functional
[3] = test system: Enterobacter cloacae; assay: In vitro minimal inhibitory concentration (MIC) of compound in combination with Ceftazidime (CAZ) showed synergic activity against Enterobacter cloacae S-11; format: functional
[4] = test system: Morganella morganii; assay: In vitro minimal inhibitory concentration (MIC) of compound in combination with Ceftazidime (CAZ) showed synergic activity against Morganella morganii 36014; format: functional
[5] = test system: Morganella morganii; assay: In vitro minimal inhibitory concentration (MIC) of compound in combination with Ceftazidime (CAZ) showed synergic activity against Morganella morganii 36030; format: functional
[6] = test system: Pseudomonas aeruginosa; assay: microbe, parasite or virus in culture
[7] = test system: Pseudomonas aeruginosa; assay: microbe, parasite or virus in culture; remark: listed apart in the source
[8] = test system: Citrobacter freundii; assay: In vitro minimal inhibitory concentration (MIC) of compound in combination with Ceftazidime (CAZ) showed synergic activity against Citrobacter freundii 44032; format: functional
[9] = test system: Citrobacter freundii; assay: In vitro minimal inhibitory concentration (MIC) of compound in combination with Ceftazidime (CAZ) showed synergic activity against Citrobacter freundii CT 76; format: functional
[10] = test system: Klebsiella aerogenes; assay: In vitro minimal inhibitory concentration (MIC) of compound in combination with Ceftazidime (CAZ) showed synergic activity against Enterobacter aerogenes 41003; format: functional
[11] = test system: Klebsiella aerogenes; assay: In vitro minimal inhibitory concentration (MIC) of compound in combination with Ceftazidime (CAZ) showed synergic activity against Enterobacter aerogenes 41004; format: functional
[12] = test system: Klebsiella aerogenes; assay: In vitro minimal inhibitory concentration (MIC) of compound in combination with Ceftazidime (CAZ) showed synergic activity against Enterobacter aerogenes 41006; format: functional
[13] = test system: Enterobacter cloacae; assay: In vitro minimal inhibitory concentration (MIC) of compound in combination with Ceftazidime (CAZ) showed synergic activity against Enterobacter cloacae 40011; format: functional
[14] = test system: Enterobacter cloacae; assay: In vitro minimal inhibitory concentration (MIC) of compound in combination with Ceftazidime (CAZ) showed synergic activity against Enterobacter cloacae E40002; format: functional
[15] = test system: Enterobacter cloacae; assay: In vitro minimal inhibitory concentration (MIC) of compound in combination with Ceftazidime (CAZ) showed synergic activity against Enterobacter cloacae P99; format: functional
[16] = test system: Escherichia coli; assay: In vitro minimal inhibitory concentration (MIC) of compound in combination with Ceftazidime (CAZ) showed synergic activity against Escherichia coli TEM 3; format: functional
[17] = test system: Escherichia coli; assay: In vitro minimal inhibitory concentration (MIC) of compound in combination with Ceftazidime (CAZ) showed synergic activity against Escherichia coli TEM 7; format: functional
[18] = test system: Klebsiella pneumoniae; assay: In vitro minimal inhibitory concentration (MIC) of compound in combination with Ceftazidime (CAZ) showed synergic activity against Klebsiella pneumoniae CTX 1; format: functional
[19] = test system: Pseudomonas aeruginosa; assay: In vitro minimal inhibitory concentration (MIC) of compound in combination with Ceftazidime (CAZ) showed synergic activity against Pseudomonas aeruginosa 46220 (DR-2); format: functional
[20] = test system: Proteus vulgaris; assay: In vitro minimal inhibitory concentration (MIC) of compound in combination with Ceftazidime (CAZ) showed synergic activity against Proteus vulgaris CT 106; format: functional
[21] = Morganella morganii, read-out: MIC

| Structure (SMILES) | MIC [1] [µg/mL] | MIC [2] [µg/mL] | MIC [3] [µg/mL] | MIC [4, 21] [µg/mL] | MIC [5] [µg/mL] | MIC [6] [µg/mL] | MIC [7] [µg/mL] | further results |
| --- | --- | --- | --- | --- | --- | --- | --- | --- |
| CC(C)(O/N=C(\C(=O)NC1C(=O)N2C(C(=O)[O-])=C(C[n+]3ccccc3)CSC12)c1csc(N)n1)C(=O)O.CO/N=C/[C@@]1(C)[C@H](C(=O)[O-])N2C(=O)[C@@H]([C@@H](O)c3ccccc3)[C@H]2S1(=O)=O.[Na+] (stereo not drawn) | 4 | < 0.25 | < 0.25 | 2 | 1 | 32 | 16 | – |
| CC(C)(O/N=C(\C(=O)NC1C(=O)N2C(C(=O)[O-])=C(C[n+]3ccccc3)CSC12)c1csc(N)n1)C(=O)O.CO/N=C/[C@@]1(C)[C@H](C(=O)[O-])N2C(=O)CC2S1(=O)=O.[Na+] (stereo not drawn) | 0.5 | < 0.25 | < 0.25 | < 0.25 | < 0.25 | 32 | 16 | – |
| CC(=O)[C@@]1(C)[C@H](C(=O)[O-])N2C(=O)CC2S1(=O)=O.CC(C)(O/N=C(\C(=O)NC1C(=O)N2C(C(=O)[O-])=C(C[n+]3ccccc3)CSC12)c1csc(N)n1)C(=O)O.[Na+] (stereo not drawn) | – | – | – | – | – | – | – | MIC [8]: 12.5 µg/mL; MIC [9]: 12.5 µg/mL; MIC [10]: 1.56 µg/mL; MIC [11]: 1.56 µg/mL; MIC [12]: 12.5 µg/mL; MIC [13]: 1.56 µg/mL; MIC [14]: 12.5 µg/mL; MIC [15]: 6.25 µg/mL; MIC [16]: 0.39 µg/mL; MIC [17]: 0.39 µg/mL; MIC [18]: 1.56 µg/mL; MIC [4]: ≤ 0.2 µg/mL; MIC [19]: 6.25 µg/mL; MIC [20]: 1.56 µg/mL |
